Test results as given in PubChem BioAssay AID732 (Emory University Molecular Libraries Screening Center, 2007).
Where “and” joins values, the source holds several entries; their conditions need not be identical. Equal entries are not always repeated. Calls of active or inactive are those of the source. How the calls were made is not given here.

Tested on: in vivo angiogenesis, blood vessel count
Test: angiogenesis inhibition in living animals, in vivo study, HTS (AID 732);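 further: zebrafish embryos dosed at one day post fertilization; 0% = reference inhibitor and 100% = plate mean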
Conditions: stronger effect = lower value;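 tested at 30 µM in the well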

| Compound | vessel count % control |
| --- | --- |
| NCCCNCCSP(=O)(O)O | 93.3% (inactive) |
| COc1cc(CCN)ccc1O | 124% (inactive) |
| CCn1cc(C(=O)O)c(=O)c2cc(F)c(N3CCNC(C)C3)c(F)c21 (centres undefined) | 89.7% (inactive) |
| Cc1cccc(C)c1NC(=O)C[N+](C)(C)C | 87.6% (inactive) |
| O=C(O)CCC/C=C\C[C@@H]1[C@@H](/C=C/[C@H](O)C2Cc3ccccc3C2)[C@@H](F)C[C@@H]1O | 121% (inactive) |
| CC12C(=O)OC(=O)C1(C)C1CCC2O1 (centres undefined) | 0% (inactive) |
| CC(C)(C=O)Cc1cc(C(C)(C)C)c(O)c(C(C)(C)C)c1 | 98.1% (inactive) |
| O=C1C(c2c(O)[nH]c3ccc(F)cc23)=Nc2ccccc21 | 59% (inactive) |
| CC#C[C@]1(O)CC[C@H]2[C@@H]3CCC4=CC(=O)CCC4=C3[C@@H](c3ccc(N(C)C)cc3)C[C@@]21C | 106% (inactive) |
| NCCCCN=C(N)N | 106% (inactive) |
| CCCCC#Cc1nc(N)c2ncn([C@@H]3O[C@H](C(=O)NCC)[C@@H](O)[C@H]3O)c2n1 | 110% (inactive) |
| CC(N)=NCCCC[C@@H](N)C(=O)O | 86.6% (inactive) |
| Nc1ncnc2c1ncn2[C@@H]1O[C@H](COP(=O)(O)CP(=O)(O)OP(=O)(O)O)[C@H](O)C1O (some centres undefined) | 95.1% (inactive) |
| CN(C)CCCCSC(=N)N | 105% (inactive) |
| CCN(c1nc(N)c(C(=O)N=C(N)N)nc1Cl)C(C)C | 73.9% (inactive) |
| C[C@H](O)C(=O)C1=Nc2c(nc(N)[nH]c2=O)NC1 | 117% (inactive) |
| CNCCNS(=O)(=O)c1cccc2cnccc12 | 140% (inactive) |
| O=c1cc(N2CCOCC2)oc2c(-c3ccccc3)cccc12 | 120% (inactive) |
| COc1ccc(C(=O)N2CCCC2=O)cc1 | 116% (inactive) |
| O=C(CCCN1CCC(O)(c2cccc(C(F)(F)F)c2)CC1)c1ccc(F)cc1 | 60.2% (inactive) |
| CC(C)(C)c1onc(OCP(=O)(O)O)c1CC(N)C(=O)O (centres undefined) | 88.9% (inactive) |
| NC(Cc1cccc(-c2ccccc2CP(=O)(O)O)c1)C(=O)O (centres undefined) | 106% (inactive) |
| COc1[nH]c2ccc(F)cc2c1C(=O)OCC1CCN(CCNS(C)(=O)=O)CC1 | 99.6% (inactive) |

| Compound | vessel count % control |
| --- | --- |
| CN[C@@H]1C[C@@H](c2ccc(Cl)c(Cl)c2)c2ccccc21 | 0% (inactive) |
| O=C1N=C(O)CN1/N=C/c1ccc(-c2ccc([N+](=O)[O-])cc2)o1 | 90.4% (inactive) |
| NOCC(=O)O | 114% (inactive) |
| CCCC[C@@]1(C2CCCC2)Cc2cc(OCC(=O)O)c(Cl)c(Cl)c2C1=O | 121% (inactive) |
| C=CCN1CC[C@]23CCCCC2[C@H]1Cc1ccc(O)cc13 (some centres undefined) | 141% (inactive) |
| CN(C)CCOC(c1ccccc1)c1ccccc1 | 86.5% (inactive) |
| NC1CONC1=O (centres undefined) | 117% (inactive) |
| CN1CCN(CC/C=C2/c3ccccc3Sc3ccc(S(=O)(=O)N(C)C)cc32)CC1 | 98.3% (inactive) |
| CC(=O)OC(C)C[N+](C)(C)C (centres undefined) | 85.5% (inactive) |
| CCCCCCCCCCCCCCSCC(=O)O | 93.7% (inactive) |
| Clc1ccc(N2CC3CCC(C2)N3)nn1 | 106% (inactive) |
| CC[N+](C)(C)c1cccc(O)c1 | 114% (inactive) |
| Cc1cn([C@H]2C=C[C@@H](CO)O2)c(=O)[nH]c1=O | 99.1% (inactive) |
| C=CCc1ccccc1OCC(O)CNC(C)C (centres undefined) | 105% (inactive) |
| NC(CP(=O)(O)O)C(=O)O (centres undefined) | 103% (inactive) |
| CCN(CC)C(C)C(=O)N1c2ccccc2Sc2ccccc21 (centres undefined) | 94.9% (inactive) |
| O=C(Cc1ccc(Cl)c(Cl)c1)N1CCCCC1CN1CCCC1 (centres undefined) | 114% (inactive) |
| CC(C)(C)NCC(O)c1ccc(O)c(CO)c1 (centres undefined) | 122% (inactive) and 102% (inactive) |
| COc1ccc2c(c1)/C(=C/c1cnc[nH]1)C(=O)N2 | 73.2% (inactive) |
| O=C(O)c1cc[c]([Hg][Cl])cc1 | 105% (inactive) |
| CN[C@H]1CC[C@@H](c2ccc(Cl)c(Cl)c2)c2ccccc21 | 98% (inactive) |
| Cc1cc(NC(=O)Nc2ccc3c(ccn3C)c2)sn1 | 112% (inactive) |
| COc1cccc(-c2cc(=O)c3ccccc3o2)c1N | 73.8% (inactive) |

| Compound | vessel count % control |
| --- | --- |
| COc1cc2c(cc1OC)-c1cc(=Nc3c(C)cc(C)cc3C)n(C)c(=O)n1CC2 | 58.5% (inactive) |
| CO[C@@]1(NC(=O)CSCC#N)C(=O)N2C(C(=O)O)=C(CSc3nnnn3C)CS[C@@H]21 | 122% (inactive) |
| N[C@H](CCCCCP(=O)(O)O)C(=O)O | 84.2% (inactive) |
| CNCCc1c[nH]c2ccc(O)cc12 | 101% (inactive) |
| Cc1c(CC(C)(C)C(=O)O)n(Cc2ccc(Cl)cc2)c2ccc(F)cc12 | 127% (inactive) |
| CN/C(=C\[N+](=O)[O-])NCCSCc1ccc(CN(C)C)o1 | 112% (inactive) |
| Cn1c(=O)c2c(nc(/C=C/c3cccc(Cl)c3)n2C)n(C)c1=O | 72.9% (inactive) |
| Oc1ccc2c3c1O[C@H]1c4[nH]c5ccccc5c4C[C@@]4(O)C(C2)N(CC2CC2)CCC314 (some centres undefined) | 115% (inactive) |
| COc1cccc(OC)c1OCCNCC1CSc2ccccc2O1 (centres undefined) | 71.1% (inactive) |
| Cc1c(OCC(F)(F)F)ccnc1CS(=O)c1nc2ccccc2[nH]1 (centres undefined) | 76.7% (inactive) |
| Cc1[nH]c2ccc(O)cc2c1CCN | 87% (inactive) |
| CNCC(O)c1ccc(O)cc1 (centres undefined) | 131% (inactive) |
| CNCC[C@H](Oc1ccc(C(F)(F)F)cc1)c1ccccc1 | 98.4% (inactive) |
| C/C=C/CC(C)C(O)C1C(=O)NC(CC)C(=O)N(C)CC(=O)N(C)C(CC(C)C)C(=O)NC(C(C)C)C(=O)N(C)C(CC(C)C)C(=O)NC(C)C(=O)NC(C)C(=O)N(C)C(CC(C)C)C(=O)N(C)C(CC(C)C)C(=O)N(C)C(C(C)C)C(=O)N1C (centres undefined) | 108% (inactive) |
| C=CCN1CC[C@]23c4c5ccc(O)c4O[C@@H]2/C(=N/N=C2\CC[C@@]4(O)C6Cc7ccc(O)c8c7[C@@]4(CCN6CC=C)[C@@H]2O8)CC[C@@]3(O)C1C5 | 100% (inactive) |
| Oc1[nH]c2c(Cl)cc(Cl)cc2c1C1=Nc2ccc(Br)cc2/C1=N\OCCN1CCNCC1 | 90.9% (inactive) |
| CN(C)S(=O)(=O)c1ccc2c(c1)/C(=C/c1cc3c([nH]1)CCCC3)C(=O)N2 | 120% (inactive) |
| CN(C)[C@@H]1C(=O)C(C(N)=O)=C(O)[C@@]2(O)C(=O)C3=C(O)c4c(O)ccc(Cl)c4[C@@H](O)[C@H]3C[C@@H]12 | 87.7% (inactive) |
| OCCN1CCN(CCCN2c3ccccc3Sc3ccc(C(F)(F)F)cc32)CC1 | 116% (inactive) |
| CCCN1CCC[C@@H](c2cccc(C#N)c2)C1 | 103% (inactive) |
| CC(COc1ccccc1)N(CCCl)Cc1ccccc1 (centres undefined) | 139% (inactive) |
| OC(CCN1CCCCC1)(c1ccccc1)C1CCCCC1 (centres undefined) | 98.5% (inactive) |
| Cc1nc(N=Nc2cc(S(=O)(=O)O)c3cc([N+](=O)[O-])cc(S(=O)(=O)O)c3c2)c(COP(=O)(O)O)c(C=O)c1O | 93.5% (inactive) |
